Measured values reported in US20260256821A1, “USE OF GINSENOSIDE IN COMBINATION WITH PD-1 BLOCKER IN PREPARING MEDICAMENT AGAINST HEAD AND NECK SQUAMOUS CELL CARCINOMA” (CHINESE ACADEMY OF MEDICAL SCIENCES INSTITUTE OF MEDICINAL …, priority 2022, published 2026).

Assays:
Cal-27 cells [1] = assay: Proliferation of tongue squamous cell carcinoma Cal-27 cells (CCK-8); type: cell-based; details: 48 h treatment, CCK-8, FIG. 1
Method: Cells in good growth state were counted and inoculated into 96-well plates with 100 μL per well according to a certain cell density. After the cells adherence to the wall overnight, a medicament solution was added to intervene the cells. After 48 h of medicament treatment, CCK-8 reagent was added, 10 μL per well. After incubation for 2 h, the culture plates were taken out and detected at 450 nm wavelength of the enzymograph.

Cal-27 cells [2] = assay: Killing effect of lymphocytes on tumor cells in Cal-27/PBMC co-culture (Incucyte); type: cell-based; details: compared with PBMC control group, anti-PD-1 antibody 5 μg/mL; for number of Cal-27 cells / killing effect of lymphocytes on tumor cells: FIG. 3, Rh2 1, 5, 10 μM, effect-to-target ratio 5:1; for killing effect of lymphocytes on tumor cells: FIG. 5, Rg3 1, 5, 10 μM
Method: Cal-27 cells in good growth state were digested and centrifuged, appropriate amount of cell suspension was taken and placed in a new centrifuge tube, incubated with the target red label reagent for 20 min, washed and centrifuged with serum-free culture solution, then plated, and placed in an incubator for overnight cultivation to make them adhere to the wall. PBMC stimulated by PHA was added into the well plate in ratios of 1:1, 5:1, 10:1 and 20:1, and Incucyte real-time dynamic cell imaging system was used to observe the killing effect of lymphocytes on tumor cells under different target ratio conditions.
Cal-27 cells in good growth statu were digested and centrifuged, incubated with red target labeling reagent for 20 min, and washed with serum-free culture solution. After the cells were adherence to the wall overnight, the PBMC stimulated by PHA was added to the well plate according to the effect-to-target ratio of 5:1 and co-cultured with Cal-27 cells. Ginsenoside Rh2 or ginsenoside Rg3 of medicament solution with different concentrations were prepared, and they and 5 μg/mL human anti-PD-1 antibody were added into the well plate for incubation, and were divided into control group, ginsenoside alone group, anti-PD-1 antibody alone group, ginsenoside and anti-PD-1 antibody combination group. The culture plates were placed into Incucyte real-time dynamic cell imaging analysis system for real-time monitoring.

SCC-7 cells = assay: Tumor growth in head and neck squamous cell carcinoma-bearing mice; type: in vivo; details: FIG. 6A; alone, versus model control; Rh2 15 mg/kg intragastric; anti-PD-1 antibody 200 μg/mice intraperitoneal
Method: SPF grade C57 mice, 6 weeks old, female, were purchased from Beijing Charles River Laboratories Animal Company. […] OF MEDICINAL PLANT DEVELOPMENT. The experimental facilities comply with barrier environmental standards, with a temperature of 20° C. to 26° C., a relative humidity of 40% to 70%, and light and dark alternating for 12 hours each. Mice were raised in standard boxes, with 5 mice per cage. During the raising process, the animals were allowed to eat and move freely.
(§1) The mice were randomly divided into four groups: model control group, ginsenoside Rh2 group (15 mg/kg), anti-PD-1 antibody group (200 μg/mice), and ginsenoside Rh2 in combination with anti-PD-1 antibody group. The administration time and volume were as follows: ginsenoside Rh2 was administered intragastrically 5 days before vaccination; anti-PD-1 antibody was administered intraperitoneally on days 3, 6, 9, and 12 after vaccination.
(§2) SCC-7 cells were resuscitated and expanded in large quantities. Trypsin was added to digest and the cells were collected. After counted, the cells were re-suspended in PBS solution and the cell concentration was adjusted, and the mice were inoculated with 5*10^6 cells/0.2 mL in the right armpit.
Throughout the experiment, the tumor volume of the mice was measured twice weekly.
After the experiment, the mice's eyeballs were removed to collect blood, and the tumor tissue was peeled off. […]

[3] = system: tumor-infiltrating lymphocytes; assay: Tumor-infiltrating lymphocyte levels in mice tumor tissue (flow cytometry); type: in vivo; details: for number/abundance of T cells infiltrating into tumors: FIGS. 7A and 7D
Method: as §1, §2
After the experiment, the mice's eyeballs were removed to collect blood, and the tumor tissue was peeled off. The tumor tissue was divided into two parts, one part was quickly frozen in liquid nitrogen and then transferred to a −80° C. refrigerator for storage, and the other part was stored in PBS solution for flow cytometry detection.
Mice tumor samples were cut into pieces with sterile scissors, ground gently with a syringe stopper, and filtered through a 40 μm filter to prepare a single cell suspension. The cell suspension was transferred to a new centrifuge tube, PBS solution was added, the supernatant was discarded after centrifugation, and the remaining was washed with PBS and centrifuged again. PBS was added to re-suspended, 100 μL of resuspending solution was placed into the flow tube, the corresponding flow cytometry antibody was added for incubating and staining for 20 minutes, and then on-machine detection was performed.

[4] = Rh2 as metabolite relative to ginsenoside Rg3; cited from earlier work

CC(C)=CCC[C@](C)(O[C@@H]1O[C@H](CO)[C@@H](O)[C@H](O)[C@H]1O)[C@H]1CC[C@]2(C)[C@@H]1[C@H](O)C[C@@H]1[C@@]3(C)CC[C@H](O)C(C)(C)[C@@H]3[C@@H](O[C@@H]3O[C@H](CO)[C@@H](O)[C@H](O)[C@H]3O[C@@H]3O[C@@H](C)[C@H](O)[C@@H](O)[C@H]3O)C[C@]12C [ginsenoside Re]
inhibitory effect on Cal-27 cells (Cal-27 cells [1]): concentration-dependent inhibitory effects
IC50 (Cal-27 cells [1]; Homo sapiens, CAL-27): ~100 µM

CC(C)=CCC[C@](C)(O)[C@H]1CC[C@]2(C)[C@@H]1[C@H](O)C[C@@H]1[C@@]3(C)CC[C@H](O)C(C)(C)[C@@H]3[C@@H](O[C@@H]3O[C@H](CO)[C@@H](O)[C@H](O)[C@H]3O)C[C@]12C [ginsenoside Rh1]
IC50 (Cal-27 cells [1]): ~100 µM
inhibitory effect on Cal-27 cells (Cal-27 cells [1]): concentration-dependent inhibitory effects

CC(C)=CCC[C@](C)(O[C@@H]1O[C@H](CO[C@@H]2O[C@H](CO)[C@@H](O)[C@H](O)[C@H]2O)[C@@H](O)[C@H](O)[C@H]1O)[C@H]1CC[C@]2(C)[C@@H]1[C@H](O)C[C@@H]1[C@@]3(C)CC[C@H](O[C@@H]4O[C@H](CO)[C@@H](O)[C@H](O)[C@H]4O[C@@H]4O[C@H](CO)[C@@H](O)[C@H](O)[C@H]4O)C(C)(C)[C@@H]3CC[C@]12C [ginsenoside Rb1]
IC50 (Cal-27 cells [1]): ~100 µM
inhibitory effect on Cal-27 cells (Cal-27 cells [1]): concentration-dependent inhibitory effects

CC(C)=CCC[C@](C)(O[C@@H]1O[C@H](CO[C@@H]2OC[C@@H](O)[C@H](O)[C@H]2O)[C@@H](O)[C@H](O)[C@H]1O)[C@H]1CC[C@]2(C)[C@@H]1[C@H](O)C[C@@H]1[C@@]3(C)CC[C@H](O[C@@H]4O[C@H](CO)[C@@H](O)[C@H](O)[C@H]4O[C@@H]4O[C@H](CO)[C@@H](O)[C@H](O)[C@H]4O)C(C)(C)[C@@H]3CC[C@]12C [ginsenoside Rb3]
IC50 (Cal-27 cells [1]): ~100 µM
inhibitory effect on Cal-27 cells (Cal-27 cells [1]): concentration-dependent inhibitory effects

CC(C)=CCC[C@](C)(O[C@@H]1O[C@H](CO)[C@@H](O)[C@H](O)[C@H]1O)[C@H]1CC[C@]2(C)[C@@H]1[C@H](O)C[C@@H]1[C@@]3(C)CC[C@H](O)C(C)(C)[C@@H]3[C@@H](O[C@@H]3O[C@H](CO)[C@@H](O)[C@H](O)[C@H]3O)C[C@]12C [ginsenoside Rg1]
IC50 (Cal-27 cells [1]): ~100 µM
inhibitory effect on Cal-27 cells (Cal-27 cells [1]): concentration-dependent inhibitory effects

pembrolizumab [anti-PD-1 antibody]
number of Cal-27 cells / killing effect of lymphocytes on tumor cells (Cal-27 cells [2]): can also significantly promote the killing effect of lymphocytes
killing effect of lymphocytes on tumor cells (Cal-27 cells [2]): can significantly promote the killing effect of lymphocytes
tumor volume (SCC-7 cells): decreased slightly
number/abundance of T cells infiltrating into tumors [3]: neither ginsenoside Rh2 nor anti-PD-1 antibody had a significant effect
infiltration level of CD8+ T cells in tumors ([3]; FIGS. 7B and 7E, P<0.05): increased significantly

CC(C)=CCC[C@](C)(O)[C@H]1CC[C@]2(C)[C@@H]1[C@H](O)C[C@@H]1[C@@]3(C)CC[C@H](O[C@@H]4O[C@H](CO)[C@@H](O)[C@H](O)[C@H]4O[C@@H]4O[C@H](CO)[C@@H](O)[C@H](O)[C@H]4O)C(C)(C)[C@@H]3CC[C@]12C [ginsenoside Rg3]
inhibitory effect on Cal-27 cells (Cal-27 cells [1]): most significant inhibitory effect
killing effect of lymphocytes on tumor cells (Cal-27 cells [2]): can promote the killing effect of lymphocytes

CC(C)=CCC[C@](C)(O[C@@H]1O[C@H](CO)[C@@H](O)[C@H](O)[C@H]1O)[C@H]1CC[C@]2(C)[C@@H]1[C@H](O)C[C@@H]1[C@@]3(C)CC[C@H](O)C(C)(C)[C@@H]3CC[C@]12C [ginsenoside CK]
inhibitory effect on Cal-27 cells (Cal-27 cells [1]): most significant inhibitory effect

CC(C)=CCC[C@](C)(O[C@@H]1O[C@H](CO[C@@H]2O[C@@H](CO)[C@H](O)[C@H]2O)[C@@H](O)[C@H](O)[C@H]1O)[C@H]1CC[C@]2(C)[C@@H]1[C@H](O)C[C@@H]1[C@@]3(C)CC[C@H](O[C@@H]4O[C@H](CO)[C@@H](O)[C@H](O)[C@H]4O[C@@H]4O[C@H](CO)[C@@H](O)[C@H](O)[C@H]4O)C(C)(C)[C@@H]3CC[C@]12C [ginsenoside Rc]
inhibitory effect on Cal-27 cells (Cal-27 cells [1]): concentration-dependent inhibitory effects
IC50 (Cal-27 cells [1]; Homo sapiens, CAL-27): ~100 µM

CC(C)=CCC[C@](C)(O)[C@H]1CC[C@]2(C)[C@@H]1[C@H](O)C[C@@H]1[C@@]3(C)CC[C@H](O[C@@H]4O[C@H](CO)[C@@H](O)[C@H](O)[C@H]4O)C(C)(C)[C@@H]3CC[C@]12C [ginsenoside Rh2]
inhibitory effect on Cal-27 cells (Cal-27 cells [1]): most significant inhibitory effect
number of Cal-27 cells / killing effect of lymphocytes on tumor cells (Cal-27 cells [2]): can reduce the number of Cal-27 cells
tumor volume (SCC-7 cells): significantly reduce the tumor size
content increased [4]: 50 times
oral bioavailability increased [4]: 5 times
number/abundance of T cells infiltrating into tumors [3]: neither ginsenoside Rh2 nor anti-PD-1 antibody had a significant effect
proportion of B cell activation ([3]; FIGS. 7C and 7F, P<0.05): significantly increase the proportion of B cell activation
